Data published in US7199154B2, “Nitric oxide releasing prodrugs of diaryl-2-(5h)-furanones as cyclooxygenase-2 inhibitors” (Merck Frosst Company, priority 2002, dated 2007).

Columns and labels:
[1] = test system: Paw Edema; experiment: Rat paw edema assay (carrageenan); type: in vivo; conditions: male Sprague-Dawley rats, 3 hr after carrageenan
Protocol: Male Sprague-Dawley rats (150–200 g) are fasted overnight and are given p.o., either vehicle (1% methocell) or a test compound in the morning. One hr later, a line drawn using a permanent marker at the level above the ankle in one hind paw to define the area of the paw to be monitored. The paw volume (VOh) is measured using a plethysmometer (Ugo-Basile, Italy) based on the principle of water displacement. The animals are then injected subplantarly with 50 ul of a 1% carrageenan solution in saline (sigma Chem) into the paw using an insulin syringe with a 25-gauge needle (i.e. 500 ug carrageenan per paw). Three hr later, the paw volume (V3h) is measured and the increases in paw volume (V3h−VOh) are calculated. Paw edema data are the compared with the vehicle-control group and percent inhibitions calculated taking the values in the control group as 100%. All treatment groups are coded to eliminate observer bias.

[2] = target: T1, microsomal human COX-2 (Homo sapiens, UniProt P35354); experiment: Microsomal cyclooxygenase assay, COX-2; type: biochemical; conditions: microsomal fraction, PGE2 by EIA; read-out: IC50 against microsomal human COX-2
T1 construct: from which microsomes are prepared for microsomal assays, are human osteosarcoma 143 cells; endogenous in cells; host or cells: human osteosarcoma 143 cells (microsomal fraction)
T1 sequence (P35354 18-604): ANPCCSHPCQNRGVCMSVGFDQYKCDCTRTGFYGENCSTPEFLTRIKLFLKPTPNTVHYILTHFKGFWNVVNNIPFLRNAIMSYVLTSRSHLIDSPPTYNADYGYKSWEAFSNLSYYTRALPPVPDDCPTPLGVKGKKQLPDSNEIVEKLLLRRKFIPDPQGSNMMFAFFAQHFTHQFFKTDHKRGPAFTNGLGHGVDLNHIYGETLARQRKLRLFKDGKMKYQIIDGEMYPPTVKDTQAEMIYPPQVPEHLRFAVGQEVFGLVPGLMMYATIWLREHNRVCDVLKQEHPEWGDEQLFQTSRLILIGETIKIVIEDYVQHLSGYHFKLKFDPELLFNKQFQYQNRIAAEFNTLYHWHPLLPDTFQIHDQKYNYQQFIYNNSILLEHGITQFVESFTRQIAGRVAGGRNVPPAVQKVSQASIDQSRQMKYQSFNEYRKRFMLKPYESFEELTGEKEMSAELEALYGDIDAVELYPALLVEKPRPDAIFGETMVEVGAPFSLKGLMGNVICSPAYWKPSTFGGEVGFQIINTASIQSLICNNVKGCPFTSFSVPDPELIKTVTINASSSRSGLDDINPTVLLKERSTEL
Protocol: (§1) Compounds are tested as inhibitors of cyclooxygenase activity in whole cell and microsomal cyclooxygenase assays. Both of these assays measure prostaglandin E2 (PGE2) synthesis in response to arachidonic acid, using a radioimmunoassay. Cells used for whole cell assays, and from which microsomes are prepared for microsomal assays, are human osteosarcoma 143 cells (which specifically express cyclooxygenase-2) and human U-937 cells (which specifically express cyclooxygenase-1). In these assays, 100% activity is defined as the difference between prostaglandin E2 synthesis in the absence and presence of arachidonate addition. IC50 values represent the concentration of putative inhibitor required to return PGE2 synthesis to 50% of that obtained as compared to the uninhibited control.
(§2) Cox microsomal fractions are prepared as previously described (Percival et al., Arch. Biochem. Biophys. (1994) 315:111–118). The enzyme reactions are performed in 50 mM KPi pH 8.0, 1 μM heme, 1 mM phenol supplemented with 10 μg/ml of each Cox-1 or Cox-2 microsomal fractions. 1 μl DMSO or test compound (100 fold stock concentrated in DMSO) are added to 100 μl buffer. The enzyme reaction is initiated 15 minutes later by the addition of 10 μl of 100 μM arachidonic acid. […] PGE2 levels are then determined by EIA (Assay Designs) using the manufacturer's instruction.

[3] = target: T2, microsomal human COX-1 (Homo sapiens, UniProt P23219); experiment: Microsomal cyclooxygenase assay, COX-1; type: biochemical; conditions: microsomal fraction, PGE2 by EIA; read-out: IC50 against microsomal human COX-1
T2 construct: from which microsomes are prepared for microsomal assays, are human osteosarcoma 143 cells; endogenous in cells; host or cells: human U-937 cells (microsomal fraction)
T2 sequence (P23219 24-599): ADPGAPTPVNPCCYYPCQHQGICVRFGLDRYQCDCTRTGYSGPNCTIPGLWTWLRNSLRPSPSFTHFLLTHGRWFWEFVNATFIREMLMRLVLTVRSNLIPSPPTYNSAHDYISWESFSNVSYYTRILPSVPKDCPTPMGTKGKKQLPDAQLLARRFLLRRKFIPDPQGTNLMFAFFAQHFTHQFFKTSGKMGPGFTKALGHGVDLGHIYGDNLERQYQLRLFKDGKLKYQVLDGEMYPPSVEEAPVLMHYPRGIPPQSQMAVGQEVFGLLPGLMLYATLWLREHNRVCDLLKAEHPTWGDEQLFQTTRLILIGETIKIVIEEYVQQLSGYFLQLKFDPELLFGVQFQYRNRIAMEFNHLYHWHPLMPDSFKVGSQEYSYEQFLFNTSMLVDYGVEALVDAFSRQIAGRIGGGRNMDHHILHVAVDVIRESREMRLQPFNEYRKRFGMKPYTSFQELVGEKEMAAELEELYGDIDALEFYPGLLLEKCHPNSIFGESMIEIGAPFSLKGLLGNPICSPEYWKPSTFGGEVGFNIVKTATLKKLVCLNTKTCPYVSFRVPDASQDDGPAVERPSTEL
Protocol: as §1, §2

COC(=O)/C(=C(\COC(=O)OCCCCO[N+](=O)[O-])c1ccc(S(C)(=O)=O)cc1)c1ccccc1 [Example 3, methyl (2Z)-3-[4-(methylsulfonyl)phenyl]-4-({[4-(nitrooxy)butoxy]carbonyl}oxy)-2-phenylbut-2-enoate]
Paw Edema (% inhibition) ([1]; dose 1 mg/kg p.o.): 42%
Paw Edema (% inhibition) ([1]; dose 3 mg/kg p.o.): 51%
Paw Edema (% inhibition) ([1]; dose 10 mg/kg p.o.): 68%
Paw Edema (% inhibition) ([1]; dose 30 mg/kg p.o.): 79%

CCOC(=O)/C(=C(\COC(=O)OCCCCCCO[N+](=O)[O-])c1ccc(S(C)(=O)=O)cc1)c1ccccc1 [Example 9, Ethyl (2Z)-3-[4-(methylsulfonyl)phenyl]-4-[({[6-(nitrooxy)hexyl]oxy}carbonyl)oxy]-2-phenylbut-2-enoate]
IC50 [2]: > 100 µM
IC50 [3]: > 100 µM
